Consider seven molecules from ChEMBL document CHEMBL1201862, “PubChem BioAssay data set” (2004).

The target of assay [1] is Peroxisome proliferator-activated receptor gamma/Nuclear receptor coactivator 1 (Homo sapiens, UniProt P37231). Kind of assay: TR-FRET dose response biochemical High Throughput Screening assay for agonists of the steroid receptor coactivator 1 (SRC-1) recruitment by the peroxisome proliferator-activated receptor gamma (PPAR gamma): non-selective agonists. [Related pubchem assays (depositor defined):AID1300, AID1808, AID504735, AID631]. Format: protein assay. For orientation: TR-FRET usually uses a lanthanide donor and a delayed reading to cut background.

The target of assay [2] is Peroxisome proliferator-activated receptor gamma/Nuclear receptor coactivator 3 (Homo sapiens, UniProt P37231). The assay is described as follows: TR-FRET dose response biochemical High Throughput Screening assay for agonists of the steroid receptor coactivator 3 (SRC-3) recruitment by the peroxisome proliferator-activated receptor gamma (PPAR gamma): non-selective agonists. [Related pubchem assays: 1301 (Confirmation screen.), 1048 (Primary screen.)]. It is filed as functional.

Assay [3] concerns the target Peroxisome proliferator-activated receptor gamma/Nuclear receptor coactivator 2 (Homo sapiens, UniProt P37231). The assay is described as follows: TR-FRET dose response biochemical High Throughput Screening assay for agonists of the steroid receptor coactivator 2 (SRC-2) recruitment by the peroxisome proliferator-activated receptor gamma (PPAR gamma): non-selective agonists. [Related pubchem assays: 1297, 1032 ]. It is filed as functional.

Assay [4] has as its target T1, Polyadenylate-binding protein 1 (Homo sapiens, UniProt P11940). The assay is described as follows: PABP1 MLLE–PAM2 interaction inhibitors, dose response, miRNA deadenylation inhibitor project, biochemical, fluorescence polarization, Cy5-PAM2 peptide, secondary (AID 602260). Format: functional. The conditions noted are these: read-out: IC50_Mean. In general terms: Polarisation of emitted light reports the rotation of a fluorescent probe.

Assay [5] concerns the target T1, Polyadenylate-binding protein 1. The assay is described as follows: PABP1 MLLE–PAM2 binding inhibitor potency, dose response, biochemical, fluorescence polarization, FITC-PAM2 peptide (AID 602259). Format: functional. The conditions noted are these: read-out: IC50_Mean.
In assay [6] the target is T2, Fibrinogen beta chain (Homo sapiens, UniProt P02675). The assay is described as follows: Fluorescence polarization-based biochemical high throughput dose response assay to identify inhibitors that disrupt the binding of a cyclic peptide (Tn6) to the fibrin proteolytic product D-Dimer and fragment E complex [DD(E )].
T2 sequence (P02675 whole entry, the tested form may be a part): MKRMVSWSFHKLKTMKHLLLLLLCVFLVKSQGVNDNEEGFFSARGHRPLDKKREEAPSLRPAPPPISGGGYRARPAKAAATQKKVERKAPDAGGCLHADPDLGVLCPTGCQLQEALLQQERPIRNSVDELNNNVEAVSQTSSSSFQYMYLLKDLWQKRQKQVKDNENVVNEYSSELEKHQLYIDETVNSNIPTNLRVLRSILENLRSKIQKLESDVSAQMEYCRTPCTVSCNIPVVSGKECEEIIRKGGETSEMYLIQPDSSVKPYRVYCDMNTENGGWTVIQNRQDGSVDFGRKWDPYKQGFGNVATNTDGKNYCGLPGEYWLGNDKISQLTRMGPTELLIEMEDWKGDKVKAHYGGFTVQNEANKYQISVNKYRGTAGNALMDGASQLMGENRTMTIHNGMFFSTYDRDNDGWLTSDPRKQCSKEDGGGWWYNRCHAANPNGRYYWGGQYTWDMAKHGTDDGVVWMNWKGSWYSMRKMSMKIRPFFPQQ
The target of assay [7] is T2, Fibrinogen beta chain. The assay is described as follows: Fluorescence polarization-based biochemical high throughput dose response assay to identify inhibitors that disrupt the binding of a cyclic peptide (Tn7) to the fibrin proteolytic product D-Dimer and fragment E complex [DD(E )].
Assay [8] in a line: HIV Env cell-cell fusion inhibitors, dose response, HIV entry, plate reader, dry powder (AID 687023). It is filed as functional, cell-based.
A short description of assay [9]: HEK293T cell cytotoxicity, dose response, cytotoxicity control, CellTiter-Glo luminescence, dry powder, set 6 (AID 651949). It is filed as functional, cell-based. The conditions noted are these: HEK293. On the technique in general: Cellular ATP, detected with luciferase, serves as a proxy for viable cell number.
The target of the next assay is Kallikrein-7 (Homo sapiens, UniProt P49862). Kind of assay: Fluorescence Intensity-based biochemical primary high throughput dose response assay to identify activators of kallikrein-7 (K7) zymogen.
Chain of Kallikrein-7 (P49862 whole entry): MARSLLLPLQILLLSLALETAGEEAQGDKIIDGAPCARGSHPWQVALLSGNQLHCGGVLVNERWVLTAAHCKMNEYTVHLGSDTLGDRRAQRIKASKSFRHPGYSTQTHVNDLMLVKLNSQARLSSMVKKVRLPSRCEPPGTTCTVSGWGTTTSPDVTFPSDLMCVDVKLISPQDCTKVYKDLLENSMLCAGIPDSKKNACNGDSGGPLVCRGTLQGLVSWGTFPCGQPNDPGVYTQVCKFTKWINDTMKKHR
A short description of assay [10]: P. falciparum 3D7-ScDHODH growth inhibitors, dose response, SYBR Green, dry powder samples (AID 1159570).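 Also: parasite growth measured after 72 hours of compound exposure.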 It is filed as functional, cell-based.
The nature of assay [11]: HepG2 cell cytotoxicity, dose response, cytotoxicity control, plate reader, dry powder samples (AID 1159569).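 Also: inhibitor potency with signal falling toward the positive control level.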 Format: functional, cell-based.
Assay [12] in a line: P. falciparum Dd2 growth inhibitors, dose response, SYBR Green, dry powder samples, set 4 (AID 1159572). Format: functional, cell-based.
Assay [13] can be described thus: P. falciparum Dd2 growth inhibitors, dose response, SYBR Green, cherry-picked samples (AID 1159567). Format: functional, cell-based.
Assay [14] can be described thus: P. falciparum Dd2 growth inhibitors, dose response, SYBR Green, dry powder samples (AID 1159566).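 Also: potency for growth inhibition with lower SYBR green DNA signal.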 Format: functional, cell-based.
A short description of assay [15]: HepG2 cell cytotoxicity, dose response, cytotoxicity control, cherry-picked samples (AID 1159577). Format: functional, cell-based.
A short description of assay [16]: P. falciparum ATP4 D1247Y mutant growth inhibitors, dose response, NITD609-resistant line, SYBR Green, dry powder (AID 1159571).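 Also: parasites synchronized at ring stage by sorbitol before testing.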 Format: functional, cell-based.
Assay [17] concerns the target Eukaryotic translation initiation factor 4E (Mus musculus, UniProt P63073). Kind of assay: eIF4E–eIF4G protein interaction inhibitors, dose response, biochemical, TR-FRET (AID 855).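 Also: potency for disrupting eIF4E binding to eIF4GI seen as loss of FRET.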 It is filed as functional.
For assay [18], the target named is Glutathione-S-transferase (Schistosoma japonicum, UniProt Q26513). The assay is described as follows: biotin-GST/anti-GST TR-FRET signal inhibitors, dose response, artefact control for Vif-APOBEC3G degradation inhibitor project, biochemical (AID 1117362). Format: functional.
Chain of Glutathione-S-transferase (Q26513 whole entry): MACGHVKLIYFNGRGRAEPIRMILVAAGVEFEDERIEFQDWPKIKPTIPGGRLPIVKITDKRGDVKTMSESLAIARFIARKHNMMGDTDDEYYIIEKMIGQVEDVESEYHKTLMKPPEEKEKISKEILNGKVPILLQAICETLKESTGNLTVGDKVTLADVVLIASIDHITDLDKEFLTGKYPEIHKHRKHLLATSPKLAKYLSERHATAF
For the next assay, the target named is Paired box protein Pax-8 (Homo sapiens, UniProt Q06710). The assay is described as follows: inhibitors of PAX8-driven TPO luciferase reporter, dose response, RMG-I cells, cherry-pick (AID 687027).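 Also: luciferase reporter driven by Pax8 target thyroperoxidase promoter measured by SteadyGlo luminescence.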 It is filed as functional, cell-based.
Chain of Paired box protein Pax-8 (Q06710 whole entry): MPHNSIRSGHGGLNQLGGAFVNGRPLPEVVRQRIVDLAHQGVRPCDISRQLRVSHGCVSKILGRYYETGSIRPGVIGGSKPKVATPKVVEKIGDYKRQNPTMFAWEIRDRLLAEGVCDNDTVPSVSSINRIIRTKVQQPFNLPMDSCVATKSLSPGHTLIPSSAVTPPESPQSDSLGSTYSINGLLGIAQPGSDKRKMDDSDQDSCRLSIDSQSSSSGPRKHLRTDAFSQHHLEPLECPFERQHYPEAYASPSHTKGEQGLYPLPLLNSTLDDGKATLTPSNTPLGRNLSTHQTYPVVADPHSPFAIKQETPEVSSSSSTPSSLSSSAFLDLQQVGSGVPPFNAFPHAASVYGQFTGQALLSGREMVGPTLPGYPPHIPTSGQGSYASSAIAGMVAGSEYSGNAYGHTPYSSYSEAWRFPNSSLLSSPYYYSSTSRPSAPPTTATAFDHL
Assay [19] is described as follows: IOSE-T80 ovarian epithelial cell cytotoxicity, dose response, cytotoxicity control for PAX8 inhibitor project, plate reader, dry powder samples (AID 743045). Format: functional, cell-based.
Assay [20] is described as follows: NIH:OVCAR-3 ovarian cancer cell cytotoxicity, dose response, PAX8 inhibitor project, plate reader, dry powder samples (AID 743044). Format: functional, cell-based.
A short description of assay [21]: IGROV1 ovarian cancer cell cytotoxicity, dose response, PAX8 inhibitor project, plate reader, dry powder samples (AID 743043). Format: functional, cell-based. The following applies: IGROV-1.

The source made the active and inactive calls. A value given as a limit tells only on which side of the number the result lay.

T1 sequence (P11940 whole entry): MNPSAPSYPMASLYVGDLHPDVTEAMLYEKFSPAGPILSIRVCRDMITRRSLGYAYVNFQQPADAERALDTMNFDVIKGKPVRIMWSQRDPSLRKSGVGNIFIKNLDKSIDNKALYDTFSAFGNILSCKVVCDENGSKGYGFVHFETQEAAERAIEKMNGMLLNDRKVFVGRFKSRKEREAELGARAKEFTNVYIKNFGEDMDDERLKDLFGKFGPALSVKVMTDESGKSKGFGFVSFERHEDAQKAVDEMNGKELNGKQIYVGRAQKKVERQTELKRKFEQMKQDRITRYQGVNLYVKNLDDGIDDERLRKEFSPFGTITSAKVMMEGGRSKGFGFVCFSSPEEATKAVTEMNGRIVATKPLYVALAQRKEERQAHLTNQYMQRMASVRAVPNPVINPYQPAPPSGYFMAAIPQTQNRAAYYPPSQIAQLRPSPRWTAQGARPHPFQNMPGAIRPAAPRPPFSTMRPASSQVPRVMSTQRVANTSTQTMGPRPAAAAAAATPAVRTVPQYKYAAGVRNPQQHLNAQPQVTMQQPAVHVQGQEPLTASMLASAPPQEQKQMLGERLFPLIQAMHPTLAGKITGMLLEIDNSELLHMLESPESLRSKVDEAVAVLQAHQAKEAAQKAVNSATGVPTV
Chain of Eukaryotic translation initiation factor 4E (P63073 whole entry): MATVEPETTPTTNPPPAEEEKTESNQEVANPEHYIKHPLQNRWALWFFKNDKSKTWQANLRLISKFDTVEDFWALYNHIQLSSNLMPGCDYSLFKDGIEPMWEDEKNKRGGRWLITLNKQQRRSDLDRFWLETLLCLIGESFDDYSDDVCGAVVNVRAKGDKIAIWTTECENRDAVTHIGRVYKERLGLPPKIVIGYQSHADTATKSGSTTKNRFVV
Chain of Peroxisome proliferator-activated receptor gamma/Nuclear receptor coactivator 2 (P37231 whole entry): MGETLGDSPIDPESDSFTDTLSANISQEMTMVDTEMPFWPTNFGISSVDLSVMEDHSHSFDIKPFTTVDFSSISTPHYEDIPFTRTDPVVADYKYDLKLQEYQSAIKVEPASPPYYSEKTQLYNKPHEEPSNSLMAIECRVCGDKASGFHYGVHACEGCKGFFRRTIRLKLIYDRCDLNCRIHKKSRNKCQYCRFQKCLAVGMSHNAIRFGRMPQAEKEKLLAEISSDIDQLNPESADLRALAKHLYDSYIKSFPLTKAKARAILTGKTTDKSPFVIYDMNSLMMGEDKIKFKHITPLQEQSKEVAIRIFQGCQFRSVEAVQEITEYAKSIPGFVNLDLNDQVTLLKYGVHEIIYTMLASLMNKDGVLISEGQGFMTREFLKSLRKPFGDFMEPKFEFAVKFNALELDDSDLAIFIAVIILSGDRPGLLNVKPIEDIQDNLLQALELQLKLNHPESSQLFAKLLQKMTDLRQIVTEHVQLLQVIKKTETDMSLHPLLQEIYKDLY
Chain of Peroxisome proliferator-activated receptor gamma/Nuclear receptor coactivator 2 (Q15596 whole entry, further chain): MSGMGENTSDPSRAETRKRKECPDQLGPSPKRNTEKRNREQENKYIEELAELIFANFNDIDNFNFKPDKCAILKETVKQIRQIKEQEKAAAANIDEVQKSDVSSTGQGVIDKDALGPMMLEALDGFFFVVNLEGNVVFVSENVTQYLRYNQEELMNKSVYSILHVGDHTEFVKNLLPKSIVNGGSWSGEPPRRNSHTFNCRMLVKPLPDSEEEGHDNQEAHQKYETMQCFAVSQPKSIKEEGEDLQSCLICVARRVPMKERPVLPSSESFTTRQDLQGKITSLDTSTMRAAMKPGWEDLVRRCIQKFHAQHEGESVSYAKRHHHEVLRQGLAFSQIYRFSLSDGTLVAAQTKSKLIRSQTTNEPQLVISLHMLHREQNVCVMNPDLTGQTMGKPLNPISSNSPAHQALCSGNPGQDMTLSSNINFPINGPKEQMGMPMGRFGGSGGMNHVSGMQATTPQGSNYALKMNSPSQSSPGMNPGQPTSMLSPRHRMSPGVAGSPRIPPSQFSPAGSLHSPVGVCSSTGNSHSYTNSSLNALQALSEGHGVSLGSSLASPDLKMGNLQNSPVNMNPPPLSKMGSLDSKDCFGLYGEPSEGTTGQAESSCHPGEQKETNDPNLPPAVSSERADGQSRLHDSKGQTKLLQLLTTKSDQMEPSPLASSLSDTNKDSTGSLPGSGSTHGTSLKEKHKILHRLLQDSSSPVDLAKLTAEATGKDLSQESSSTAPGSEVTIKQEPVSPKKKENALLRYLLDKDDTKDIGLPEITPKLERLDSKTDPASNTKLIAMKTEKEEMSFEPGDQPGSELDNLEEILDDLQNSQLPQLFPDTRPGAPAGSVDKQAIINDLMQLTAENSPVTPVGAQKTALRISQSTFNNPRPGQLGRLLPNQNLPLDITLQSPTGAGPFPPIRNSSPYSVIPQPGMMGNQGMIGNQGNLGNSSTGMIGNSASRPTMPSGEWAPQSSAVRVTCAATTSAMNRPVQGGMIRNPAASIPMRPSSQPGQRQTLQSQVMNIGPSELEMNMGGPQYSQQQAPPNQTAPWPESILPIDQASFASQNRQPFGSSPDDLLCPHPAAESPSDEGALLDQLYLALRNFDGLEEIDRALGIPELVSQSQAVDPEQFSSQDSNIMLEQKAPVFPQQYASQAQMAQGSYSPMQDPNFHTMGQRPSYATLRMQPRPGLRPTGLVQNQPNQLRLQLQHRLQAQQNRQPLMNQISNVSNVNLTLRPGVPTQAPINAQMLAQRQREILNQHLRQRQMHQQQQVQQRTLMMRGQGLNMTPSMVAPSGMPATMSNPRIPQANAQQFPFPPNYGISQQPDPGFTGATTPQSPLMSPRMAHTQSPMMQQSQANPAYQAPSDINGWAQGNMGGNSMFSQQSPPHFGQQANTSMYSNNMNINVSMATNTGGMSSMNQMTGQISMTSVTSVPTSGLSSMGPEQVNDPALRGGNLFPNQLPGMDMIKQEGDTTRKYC

For `Cc1cc2cc(CNC(=O)c3ccc(S(=O)(=O)N4CCOCC4)cc3)ccc2n1C`, the EC50 (usually the concentration that produces a half-maximal response) in [1] is 6.78 µM (active); in assay [2], 15.7 µM (not active); in assay [3], 6.71 µM (active). The IC50 is > 66 µM (inactive) in [4], 49.6 µM (inactive) in assay [5], 10.6 µM (inactive) at Fibrinogen beta chain [6] and > 83.3 µM (inactive) on Fibrinogen beta chain [7].

As for `Cc1noc(C)c1S(=O)(=O)Nc1cccc2c1O[C@H](CN(C)Cc1ccc(C(F)(F)F)cc1)[C@@H](C)CN([C@@H](C)CO)C2=O`, in [8], the AC50 (usually the concentration giving half of the maximal activity seen) is > 70 µM (inactive).

On to `COc1ccc(-c2nnc(SCc3ccc(Cl)cc3)o2)cc1`, for which the AC50 in assay [9] was > 52 µM (inactive).

Regarding `CN(C)c1ccc(-c2cccc3nccn23)cc1`, the EC50 at Kallikrein-7 is > 69.5 µM (inactive).

With `COc1ccc2c3c([nH]c2c1)[C@H](CO)N(C(=O)Cc1ccccc1)CC31CCN(C(=O)Nc2ccccc2F)CC1`, the AC50 in assay [10] is 0.0977 µM (active); in [11], > 100 µM (inactive); in [12], 0.277 µM (active); in assay [13], 0.472 µM (active); in [14] it was 0.208 µM (active); in assay [15] it was 25.2 µM (active). The AC50 in assay [16] is 0.123 µM (active).

In the case of `CN(C)[C@@H]1C(=O)C(C(=O)NCN2CCCC2)=C(O)[C@@]2(O)C(O)=C3C(=O)c4c(O)cccc4[C@@](C)(O)C3CC12` (stereo partly drawn), the figures for the IC50 in assay [17] and in [18] were 12.3 µM (active) and > 100 µM (active), respectively.

Consider `C[C@@H]1CN([C@H](C)CO)C(=O)c2cc(NC(=O)Nc3ccccc3)ccc2O[C@@H](C)CCCCO[C@H]1CN(C)Cc1ccc(C(F)(F)F)cc1`, for which the AC50 on Paired box protein Pax-8 is 10.9 µM (active); in [19], 31.7 µM (active); in assay [20], 24.2 µM (active); in assay [21], 36.2 µM (active).
